Earlier results in patent US10590381B2, “Composition for collecting and preserving placental stem cells and methods of using the composition” (Celularity, Inc., priority 2005, dated 2020).

Tests used:
[1] = Form E: about 125° C. for about five minutes; Form B: 175° C. for about five minutes
[2] = for hygroscopicity: solid polymorphic form; for conversion at higher relative humidities: stressed at higher relative humidities
[3] = Form A: among anhydrous polymorphs; Form E: in aqueous solvent systems

Row | SMILES | conversion upon heating [1] | hygroscopicity [2] | conversion at higher relative humidities [2] | relative stability among polymorphs [3]
1 | Nc1cccc2c1CN(C1CCC(=O)NC1=O)C2=O (centres unmarked) [Form E, 3-(4-amino-1-oxo-1,3 dihydro-isoindol-2-yl)-piperidene-2,6-dione] | can convert to Form B | – | – | –
2 | Nc1cccc2c1CN(C1CCC(=O)NC1=O)C2=O (centres unmarked) [Form C, 3-(4-amino-1-oxo-1,3 dihydro-isoindol-2-yl)-piperidene-2,6-dione] | – | not hygroscopic below about 85% RH | can convert to Form B at higher relative humidities | –
3 | Nc1cccc2c1CN(C1CCC(=O)NC1=O)C2=O (centres unmarked) [Form B, 3-(4-amino-1-oxo-1,3 dihydro-isoindol-2-yl)-piperidene-2,6-dione] | can convert to Form F | – | – | –
4 | Nc1cccc2c1CN(C1CCC(=O)NC1=O)C2=O (centres unmarked) [Form D, 3-(4-amino-1-oxo-1,3 dihydro-isoindol-2-yl)-piperidene-2,6-dione] | – | either weakly or not hygroscopic | will typically convert to Form B | –
5 | Nc1cccc2c1CN(C1CCC(=O)NC1=O)C2=O (centres unmarked) [Form A, 3-(4-amino-1-oxo-1,3 dihydro-isoindol-2-yl)-piperidene-2,6-dione] | – | weakly or not hygroscopic | – | most thermodynamically stable anhydrous polymorph
